Our source for the Kd values is publication PMC10278977, “Caenorhabditis elegans NMAD-1 functions as a demethylase for actin” (Journal of Molecular Cell Biology, 2023).

The target of one test is T1, NMAD-1 (WT, full-length) (Caenorhabditis elegans, UniProt Q8MNT9).
T1 construct: recombinant full-length protein
T1 sequence (Q8MNT9 1-291): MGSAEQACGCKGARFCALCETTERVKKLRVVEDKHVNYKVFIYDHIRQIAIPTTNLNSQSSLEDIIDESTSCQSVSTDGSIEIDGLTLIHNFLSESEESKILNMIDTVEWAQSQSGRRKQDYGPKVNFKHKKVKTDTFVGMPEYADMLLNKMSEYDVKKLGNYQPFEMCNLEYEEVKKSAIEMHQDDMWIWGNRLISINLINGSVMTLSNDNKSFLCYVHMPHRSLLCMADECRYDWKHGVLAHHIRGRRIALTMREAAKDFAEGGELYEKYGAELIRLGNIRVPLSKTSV
As to the kind of experiment: isothermal titration calorimetry. The test is classed as binding. The text has this: isothermal titration calorimetry on NMAD-1 (WT, full-length) | the cofactor analog N-oxalylglycine (NOG) with dissociation constants (KD) of […]
Background: ITC needs no label: the signal is the heat of the interaction.

Test [1] concerns the target T2, CTD-deleted NMAD-1 (ΔCTD, residues 1–259) (Caenorhabditis elegans, UniProt Q8MNT9).
T2 construct: residues 1-259, C-terminal domain deleted
T2 sequence (Q8MNT9 1-259): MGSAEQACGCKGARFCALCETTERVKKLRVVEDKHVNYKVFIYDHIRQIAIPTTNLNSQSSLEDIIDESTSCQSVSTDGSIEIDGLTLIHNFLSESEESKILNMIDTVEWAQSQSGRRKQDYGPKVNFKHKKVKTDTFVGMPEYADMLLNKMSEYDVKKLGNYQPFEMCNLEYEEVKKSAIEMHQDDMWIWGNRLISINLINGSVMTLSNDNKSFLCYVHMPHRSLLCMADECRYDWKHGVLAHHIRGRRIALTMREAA
As to the kind of experiment: binding affinity measurement, method not given. The text has this: binding affinity measurement, method not told in main text on CTD-deleted NMAD-1 (ΔCTD, residues 1–259) | the CTD-deleted NMAD-1 retained the NOG binding affinity

In test [2] the target is T3, NMAD-1_32–291 (NMAD-1 truncation Δ1–31) (Caenorhabditis elegans, UniProt Q8MNT9).
T3 construct: residues 32-291, N-terminal flexible region removed
T3 sequence (Q8MNT9 32-291): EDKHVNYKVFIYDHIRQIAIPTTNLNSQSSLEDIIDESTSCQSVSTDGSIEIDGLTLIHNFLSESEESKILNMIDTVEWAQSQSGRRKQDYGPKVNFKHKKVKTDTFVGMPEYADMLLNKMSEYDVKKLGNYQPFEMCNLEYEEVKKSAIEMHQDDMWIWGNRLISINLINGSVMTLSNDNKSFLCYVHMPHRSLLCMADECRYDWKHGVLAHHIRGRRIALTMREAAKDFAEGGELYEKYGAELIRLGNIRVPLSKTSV
As to the kind of experiment: binding affinity measurement, method not given. The text has this: binding affinity measurement, method not told in main text on NMAD-1_32–291 (NMAD-1 truncation Δ1–31) | NOG as the full-length NMAD-1 (Supplementary Figure S3C)

`O=C(O)CNC(=O)C(=O)O` [N-oxalylglycine]: the Kd (as a rule, the concentration at which binding is half-saturated) is 1070 ± 110 nM on NMAD-1 (WT, full-length); 1680 ± 10 nM in test [1]; 1250 ± 100 nM in test [2].
